Reference: patent US12037372B2, “Bioactive peptides derived from snakes” (Universiteit Leiden, priority 2018, dated 2024)
Where “and” joins values, the source holds several entries; their conditions need not be identical. Equal values may be shown once.

Legend:
[1] = system: MDR P. aeruginosa (LUH 15103); assay: Bactericidal activity of peptides (in vitro killing assay); assay type: cell-based, Pseudomonas aeruginosa; conditions: 2-hour treatment, 50% v/v human plasma, median (range)
Method: (§1) Enterococcus faecium (LUH 15122), Staphylococcus aureus (LUH 14616), Klebsiella pneumoniae (LUH 15104), Acinetobacter baumannii (RUH 875), Pseudomonas aeruginosa (LUH 15103), Enterobacter cloacae (LUH 15114) and Escherichia coli (LUH 15117) were used. Prior to experimentation the bacteria were taken from a glycerol stock stored at −80° C. and cultured overnight on sheep blood agar plates at 37° C. On the day of experimentation the bacteria were cultured in tryptic soy broth (TSB; Oxoid) for 2.5 hours at 37° C. and 200 rpm to a mid-logarithmic phase. The bacterial suspension was washed in phosphate buffered saline (PBS; pH 7.4), centrifuged for 10 minutes at 3000 rpm, and resuspended in PBS to the desired concentration, as determined by measuring the absorbance at 600 nm.
(§2) As a control the bacteria were also incubated in PBS with either 50% plasma or 50% urine without peptide. The plate was incubated for 2 hours at 37° C. and 200 rpm. After incubation the number of viable bacteria was determined microbiologically by plating the samples and a 10-times dilution series in PBS on diagnostic sensitivity test agar plates (DST; Sigma). The DST plates were incubated overnight at 37° C. Results were expressed as lethal concentration 99.9, or LC99.9, which represents the lowest concentration of peptide that killed 99.9% of the bacteria within 2 hours of incubation.

[2] = system: MDR S. aureus (LUH 14616), MRSA; assay: as above; assay type: cell-based, Staphylococcus aureus; conditions: MDR S. aureus LUH 14616; 2-hour treatment; 50% v/v human plasma; lowest concentration killing ≥99.9%; median (range)
Method: as §1, §2

[3] = system: multidrug resistant strain Acinetobacter baumannii RUH875; assay: as above; assay type: cell-based; conditions: 50% (v/v) human plasma, 2 hours
Method: as §1, §2

[4] = system: human neutrophils; assay: Neutrophil migration assay; assay type: cell-based; conditions: 3.2 μM peptide
Method: Heparinized blood was collected from healthy human volunteers. Next, 10 ml of blood were mixed to 15 ml of PBS in a tube. Underneath the diluted blood, 10 ml of Ficoll (Pharmacy, LUMC) were added. The tube was spun at 1800 rpm for 20 minutes without brake. The supernatant was removed and 40 ml of erythrocyte lysis buffer (0.1 mM EDTA, 0.18 M NH4Cl, 10 mM KHCO3) were added to the pellet. This mixture was incubated at room temperature until erythrocyte lysis was evident. The tube was centrifuged at 1200 rpm for 10 minutes, the supernatant was discarded. The pellet was washed again with PBS the same way. The pellet was resuspended in RPMI 1640 medium and the cells were counted with a counting chamber. The cells were diluted to 2×10^6 cells/ml of RPMI 1640. The inserts with a 3.0 μm pore size in a 12-well plate (HTS transwell; Costar) were blocked with 400 μl of PBS with 0.1% w/v BSA for 10 minutes at room temperature after which the BSA solution was discarded. The 2×10^6 cells/ml suspension was diluted with RPMI to add 400 μl of a 2×10^5 cells/ml suspension to the inserts. […] In the lower compartment 1 ml of the chemoattractant was added. […] Results were expressed as the percentage of migrated neutrophils compared to the positive FMLP control, and corrected for the negative control.

| Substance | LC99.9 (μM) MDR P. aeruginosa in 50% plasma [1] | LC99.9 (μM) MRSA in 50% plasma [2] | LC99.9 (μM) A. baumannii ([3]; Table 5) [µM] | LC99.9 (μM) A. baumannii ([3]; Table 6) [µM] | migrated neutrophils [4] [%] |
| --- | --- | --- | --- | --- | --- |
| AREKSFLQKMKVILQLSSQDQIQAF [SP20] | >102.4 µM | >102.4 µM | – | – | – |
| DQVERGNFAKDGSKARVKKSLTKWVKFLKKIIAKLGRPLIGF [SP22] | 51.2 µM | 102.4 µM | – | – | – |
| FFRKVKKGVHRYFKKNKFYIAATI [SP27-68] | – | – | 12.8 | – | – |
| FKKFFRKVKKGVHRYFKKNKFYIA [SP27-65] | – | – | 1.6 | – | – |
| FRKVKKGVHRYFKKNKFYIAATIP [SP27-69] | – | – | 25.6 | – | – |
| KFFRKVKKGVHRYFKKNKFYIAAT [SP27-67] | – | – | 3.2 | – | – |
| KKFFRKVKKGVHRYFKKNKFYIAA [SP27-66] | – | – | 1.6 | – | – |
| KRFKKFFRKVKKGVHRYFKKNKFY [SP27-63] | – | – | 0.4 | 0.4 | – |
| KVKKGVHRYFKKNKFYIAATIPYY [SP27-71] | – | – | 12.8 | – | – |
| KRFAGFFQFVIGVSFHF [SP21] | >102.4 µM | >102.4 µM | – | – | – |
| KRFAGFFQFVVGVSFRF [SP33] | >102.4 µM | >102.4 µM | – | – | – |
| KRFKDFFHRIRDGVRDFFRNNHFVCGVNFRF [SP17] | >102.4 µM | >102.4 µM | – | – | – |
| KRFKKFFKKAKKSVKKRLKKFFNKTRVIGVSIPF [SP14] | 0.4 µM | 12.8 µM | – | – | – |
| KRFKKFFKKIKNGIKTFIKKTQMAIGSHFRW [SP30] | 2.4 (1.6-3.2) μM | 51.2 µM | – | – | – |
| KRFKKFFKKIKNSVKKRVKKFFKKPRVIGVSIPF [SP23] | 0.2 µM | 4.8 (3.2-6.4) μM | – | – | – |
| KRFKKFFKKIKTGIKKVIKKTKQAIASHFRW [SP18] | 0.8 µM | > 102.4 µM and 102.4 µM | – | – | – |
| KRFKKFFKKLKNSVKKRVKKFFRKPRVIGVTFPF [SP3] | 0.8 µM | 3.2 µM | – | – | – |
| KRFKKFFKKLKNSVRKCAKKFFKKLRVIRVSIPF [SP24] | 1.6 µM | 6.4 µM | – | – | – |
| KRFKKFFKKVKKSVKKRLKKIFKKPIVIGVSIPF [SP25] | 0.4 µM | 12.8 µM | – | – | – |
| KRFKKFFKKVKKSVKKRLKKIFKKPMVIGVSIPF [SP7] | 0.8 µM | 38.4 (25.6-51.2) μM | – | – | – |

| Substance | LC99.9 (μM) MDR P. aeruginosa in 50% plasma [1] | LC99.9 (μM) MRSA in 50% plasma [2] | LC99.9 (μM) A. baumannii ([3]; Table 5) [µM] | LC99.9 (μM) A. baumannii ([3]; Table 6) [µM] | migrated neutrophils [4] [%] |
| --- | --- | --- | --- | --- | --- |
| KRFKKFFKKVKKSVKKRLKKIFKKPMVIGVTFPF [SP9] | 1.6 µM | 51.2 (25.6-51.2) μM | – | – | – |
| KRFKKFFKKVKKSVKKRLKKIFKKPMVIGVTIPF [SP6] | 0.4 µM | 57.6 (12.8-102.4) μM | – | – | – |
| KRFKKFFMKLKKSVKKRVMKFFKKPMVIGVTFPF [SP12] | 3.2 µM | 25.6 (12.8->102.4) μM | – | – | – |
| KRFKKFFRKIKKGFRKIFKKTKIFIGGTIPI [SP15] | 0.8 µM | 12.8 µM | – | – | – |
| KRFKKFFRKLKKSVKKRVKKFFKKPRVIGVTIPF [SP11] | 0.4 µM | 3.2 µM | – | – | – |
| KRFKKFLKKLKKSVKKHVKEFFKKPRVIGV [SP35] | 1.6 µM | 51.2 µM | – | – | – |
| KRFKNFFKKIRDGIHEFIHNNRFVIGVNFRF [SP29] | 51.2 µM | >102.4 µM | – | – | – |
| KRFKNFFKRVRDGIRDFFRKNHIVIGVNFRF [SP31] | 25.6 µM | 102.4 µM | – | – | – |
| KRFLRLVVFKKLKKGLRKLFKKKKIVTGHVTS [SP28] | 6.4 µM | 51.2 µM | – | – | – |
| KRFLRVFKKLKRGIRKLFKKKKIVTGPLTS [SP19] | 12.8 µM | >102.4 µM | – | – | – |
| KRFLRVFRKLKKGLKKLFKRKKVVTGYVTA [SP32] | 12.8 µM | 25.6 µM | – | – | – |
| KRFRKFFKRLLKSVRRAVKKFRKKPRLIGLSTLL [SP8] | 1.6 µM | 25.6 µM | – | – | – |
| KRFTFYKKVKKNVENLLNKFFKKLRVIGDSIPF [SP26] | 12.8 µM | >102.4 µM | – | – | – |
| KRFVGSFQLVVGVSFRF [SP34] | >102.4 µM | >102.4 µM | – | – | – |
| KRVKRFKKFFKKVKKSVKKRLKKIFKKPMVIGVTIPF [SP2] | 0.4 µM | 25.6 µM | – | – | – |
| LL-37 | – | – | – | – | 5.6 |
| RFKKFFRKVKKGVHRYFKKNKFYI [SP27-64] | – | – | 0.8 | – | – |
| RKVKKGVHRYFKKNKFYIAATIPY [SP27-70] | – | – | 12.8 | – | – |
| RKFKKSFKKIRKWVKKATKIAGEVAVEILITKVILGSVGL [SP1] | 3.2 µM | >102.4 µM | – | – | – |
| VKKGVHRYFKKNKFYIAATIPYYG [SP27-72] | – | – | 25.6 | – | – |
